Data as given in a melting point compilation (Tetko et al.; mined from patent text by program, amines drawn as free bases though some values may be those of a salt).

SMILES	melting point [°C]
CNN(NC)C(=O)Nc1cccc2c1C(=O)c1c-2n[nH]c1-c1ccsc1	202
COc1c(Cl)ccc(-c2cc(N)c(Cl)c(C(=O)OCc3ccccc3)n2)c1Cl	107 to 108
N#CC(=NNC(=N)N)c1cccc(Cl)c1Cl	221 to 222
O=C(CC(NC(=O)COc1ccccc1)c1ccccc1)Nc1n[nH]c(=S)s1 (stereo unspecified)	225 to 226
Cn1cc(O)c(=O)c2cc(F)c(F)cc21	264 to 265
COc1ccc2cc(N)cc3c2c1C(=O)N(O)C3=O	> 250
CC(C)(C)OC(=O)C[C@H](NC(=O)CNC(=O)c1csc(NC(=O)NCc2ccccc2)n1)C(=O)OC(C)(C)C	111 to 114
CCOC(=O)CC1SC(c2cc(C(C)(C)C)c(O)c(C(C)(C)C)c2)N(CCCN(C)CCOc2ccc3c(c2)OCO3)C1=O (stereo unspecified)	88 to 89
COc1ncnc(-c2cc(N)c(C#N)cc2F)c1Cl	186 to 189
Nn1c(=O)n(-c2cc(Cl)ccc2O)c2ccc(C(F)(F)F)cc21	228 to 230
CCOCCOCc1ccc(-c2ccc3c(c2)C=C(C(=O)Nc2ccc(CN(C)C4CCOCC4)cc2)CCS3(=O)=O)cc1	184 to 186
COC(=O)c1scc(-c2ccccc2)c1-c1ccc(S(=O)(=O)COC(C)=O)c(F)c1	165
CC(C)(C)C(CSC(F)F)=NO	92 to 95
CCSCC12CCC(=O)C=C1CCC1C3CC(C)C(=O)C3(C)CCC12 (stereo unspecified)	102
COC(=O)c1nc2c(CBr)cccc2n1COCC[Si](C)(C)C	85 to 86
C[C@H]1C=CC2=C[C@@H](O)C[C@H](OC(=O)CC(C)(C)C)[C@@H]2[C@H]1CC[C@@H]1C[C@@H](O)CC(=O)O1	155
CC(C)(C)OC(=O)N[C@H]1CC[C@H](CC=O)CC1	61 to 63
CC(=O)Oc1cnc2c(OC(C)=O)cccc2c1	101 to 102
COc1ccc(C2Cc3cc(C(F)(F)F)ccc3NC(=O)C2CSC)cc1 (stereo unspecified)	224 to 226
CCOCCOc1cccc2oc(-c3cccs3)cc(=O)c12	111 to 113
COC(=O)c1c(SCc2ccccc2)n[nH]c1C	109 to 110
CC(Oc1ccc(Cl)c(Cl)c1)c1ccnc2ncnn12 (stereo unspecified)	146 to 149
CCCC(=O)CN1CCC(CCN2CCN(c3cccc(C)c3C)CC2)CC1	47
COc1ccc(S(=O)c2ccccc2)cc1[N+](=O)[O-] (stereo unspecified)	135 to 137

SMILES	melting point [°C]
Cc1cc(Nc2ccc(Cl)cc2)nc(-n2cc3ccccc3n2)n1	225 to 227
O=C(O)CCCNC(=O)c1cc(Cl)ccc1O	136 to 140
Cn1cc(C2=C(c3cn(CCCBr)c4ccccc34)C(=O)OC2=O)c2ccccc21	168 to 170
CS(=O)(=O)c1ccc(-c2cnn(Cc3ccc(F)cc3)c(=O)c2-c2ccc(F)cc2)cc1	153 to 154
NCCCP(=O)(O)C(F)F	261
N#CC1=C(C#N)N=CCC=N1	189 to 190
CCCC[C@H](NC(=O)[C@H](CC(C)C)NC(=O)OCc1ccccc1)C(=O)CCCc1cccs1	65 to 67
CN(NC(=O)c1ccccc1C(=O)O)c1nc(-c2ccccc2)cs1	122 to 124
NC(=O)c1cnc2ccccc2c1	132 to 138
CCN(CC)N(C(C)=O)c1nc2cc3nc(N(C(C)=O)N(CC)CC)sc3cc2s1	224 to 225
N#Cc1ccc(OCCCCCOc2cccc(-c3cc4cc(C#N)ccc4o3)c2)cc1	142 to 145
C#Cc1cc(Oc2cnc(N)nc2N)c(C#C)cc1OC	163 to 164
OC(COc1ccc(F)cc1)CN1CCC(=C2c3ccc(F)cc3CCn3ncnc32)CC1 (stereo unspecified)	134
CC1Cc2ccc(Br)cc2C(c2ccc(N)cc2)=NN1C1CC1 (stereo unspecified)	113 to 116
CN(C)C1=CCCS(=O)(=O)c2ccc(Cl)cc21	93 to 95
COc1cnc(CSc2nc3cc(OC(F)(F)F)ccc3[nH]2)c(C)c1OC	94 to 97
COc1cc2c(cc1F)C(=Cc1ccc(SC)cc1)C(C)=C2CC(=O)O	172 to 174
CCCCCCCCCCCCCCP(=O)(OC)OC	32 to 33
CC(C)C(=O)N[C@@H](CSC(=O)c1ccccc1)C(=O)NCCSC(=O)c1ccccc1	154 to 156
CCCN(Cc1ccc(-c2ccccc2-c2nc(=O)s[nH]2)cc1)c1nc(C)ncc1C(=O)OCC	173 to 175
O=C(Nc1ccc2nc(CN3CCCCC3)ccc2c1)c1ccc(-c2ccccc2)cc1	186 to 188
OC(C1=NCCN1)(c1ccccn1)c1cccs1 (stereo unspecified)	151 to 152
COc1ccc(C(C)c2cc3c(cc2OC)OCO3)cc1 (stereo unspecified)	93 to 94
OC1(c2ccc(-c3ccccc3)cc2)CN2CCC1CC2 (stereo unspecified)	165 to 166

SMILES	melting point [°C]
O=C(CC1CCN(Cc2ccccc2)CC1)c1ccc(O)cc1	197 to 198
C=CCNc1nc(N(CC=C)CC=C)nc2ccc([N+](=O)[O-])cc12	167 to 168
O=C(Cn1c(-c2cccnc2)ncc(NC(=O)OCc2ccccc2)c1=O)NC(Cc1ccccc1)C(=O)C(F)(F)F (stereo unspecified)	88 to 91
CC(=O)Oc1c(C=C(C#N)C#N)n(C(C)=O)c2ccccc12	250 to 252
CCCCCCCCCOc1ccccc1/C=C/C(C)=C/C=C/C(C)=C\C(=O)O	135 to 136
CC(C)(C)C(C)(C)Nc1nc(NC(C)(C)C(C)(C)C)nc(N2CC3CCC(CC3)C2)n1	282 to 284
Cn1nc(-c2ccc(C(=N)N)cc2)cc(C(=O)N[C@H]2CC[C@H](C(=O)O)CC2)c1=O	263 to 266
COc1ccc(-c2nc(Sc3ccccc3)[nH]c2-c2ccc(OC)cc2)cc1	177 to 179
Cn1c(=S)c(C(=O)C2=C(O)CCCC2=O)nc2ccccc21	> 300
COc1ccc(C(C)=Nc2ccc(C3=NNC(=O)CC3)cc2)c(O)c1	269
CC(=O)NCC1CN(c2ccc(N3CCN(c4nc5cc([N+](=O)[O-])ccc5o4)CC3)c(F)c2)C(=O)O1 (stereo unspecified)	224 to 225
CC(=O)N(C(C)=O)C1=C(N2CCN(Cc3cc(=O)[nH]c(=O)[nH]3)CC2)C(=O)c2ccccc2C1=O	152 to 154
CNc1ccc2c(c1)Sc1cc(NC)ccc1N2C(C)=O	137
Cc1ccc(C(=O)C2=C(O)C(=O)N(c3ccc(C)nn3)C2c2ccc(C(F)(F)F)cc2)cc1 (stereo unspecified)	278
Cc1cc(-c2cc(C(F)(F)F)n3ncc(C(=O)Nc4cccc(S(=O)(=O)N5CCN(C)CC5)c4)c3n2)ccc1Cl	143
O=[N+]([O-])c1ccc(Sc2cc(Br)nc(Br)c2)cc1	166 to 168
C(=C(c1ccccc1)N(c1ccccc1)c1ccccc1)c1cccc2ccccc12	170 to 172
CCOCc1nc2c(N)nc3ccccc3c2n1NCCCNS(C)(=O)=O	148 to 150
CC(=O)SCC(C)C(=O)Nc1cncc(C(=O)O)c1 (stereo unspecified)	154 to 158
COc1cccc2c1SCC(C(=O)O)C2 (stereo unspecified)	138 to 144
O=C(CCc1cccc(C(F)(F)F)c1)NNC(=O)c1ccc2[nH]ncc2c1	227 to 228
C[C@](O)(CNC(=O)c1cnc(OCC(F)(F)F)c(-c2ccc(Cl)cc2)n1)C1CC1	96 to 97
Nc1c(Cl)cc(C(=O)Cl)cc1C(F)(F)F	110 to 115
